This is an account of results in US20250042961A1, “P53 PEPTIDOMIMETIC MACROCYCLES” (MERCK SHARP & DOHME LLC, priority 2021, published 2025).

Structures are written as SMILES. In brackets after ≈: the same amount, converted by molar mass. Like-named read-outs stand apart in the source and are kept apart here. *1 amine or outer side, *2 acyl side, *3 side chain or, on linkers, in order; H or OH if unused. Where a SMILES comes first, the peptide text is derived from it. Bridges are numbered along the chain shown (N, C = ends). [ ]: non-standard residue; d: D form. ξ: configuration not given here. ξαMeNle(6-ylidene) = CC(CCCC=[*:3])(N[*:1])C(=O)[*:2]; dPhe(4-CF3) = N[C@H](Cc1ccc(C(F)(F)F)cc1)C(=O)O; dTrp(6-F) = N[C@H](Cc1c[nH]c2cc(F)ccc12)C(=O)O

One data set deals with T1, MDM2 (1-125) (Homo sapiens, UniProt Q00987).
T1 construct: GST (N); His6 (N); TEV cleavage site ENLYFQG (N); made in house; host or cells: Escherichia coli BL21 (DE3) Rosetta T1R
T1 sequence (Q00987 with tags, fused parts or gaps): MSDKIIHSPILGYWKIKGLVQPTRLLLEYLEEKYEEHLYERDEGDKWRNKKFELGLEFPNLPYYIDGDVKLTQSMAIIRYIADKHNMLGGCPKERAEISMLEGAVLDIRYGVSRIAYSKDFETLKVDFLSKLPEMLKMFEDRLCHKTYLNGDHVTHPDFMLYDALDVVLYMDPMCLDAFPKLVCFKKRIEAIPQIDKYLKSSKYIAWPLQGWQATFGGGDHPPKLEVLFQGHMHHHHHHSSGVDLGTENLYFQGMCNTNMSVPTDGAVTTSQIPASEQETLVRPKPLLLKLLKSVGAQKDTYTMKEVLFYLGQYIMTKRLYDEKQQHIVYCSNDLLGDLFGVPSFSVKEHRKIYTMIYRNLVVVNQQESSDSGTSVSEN
The experiment in a line: Competitive fluorescence anisotropy assay (FP Kd MDM2). Format: binding. An excerpt:
For use in the peptide binding assay, a human MDM2 1-125 sequence was cloned into a pNIC-GST vector. The TEV (tobacco etch virus) cleavage site was changed from ENLYFQS (SEQ ID NO: 13) to ENLYFQG (SEQ ID NO: 14) to give a fusion protein with the following sequence:
[P] is the protein concentration (MDM2), [L] is the labeled peptide concentration, r is the anisotropy measured, r0 is the anisotropy of the free peptide, rb is the anisotropy of the MDM2-FAM-labeled peptide complex, Kd is the dissociation constant, [L]t is the total FAM labeled peptide concentration, and [P]t is the total MDM2 concentration. […] These values were then used to determine apparent Kd values of the respective competing ligands in subsequent competition assays in fluorescence anisotropy experiments. MDM2 and MDM4 competition experiments were performed with their respective concentrations held constant at 250 nM and 75 nM, in the presence of 50 nM of FAM-labeled 12/1. The competing molecules were then titrated against the complex of the FAM-labeled peptide and protein. Apparent Kd values were determined by fitting the experimental data to the equations shown below:
[L]st and [L]t denote labeled ligand and total unlabeled ligand input concentrations, respectively. Kd2 is the dissociation constant of the interaction between the unlabeled ligand and the protein.
In all competition experiments, it is assumed that [P]t>[L]st, otherwise considerable amounts of free labeled ligand would always be present and would interfere with measurements. Kd1 is the apparent Kd for the labeled peptide used and has been experimentally determined as described in the previous paragraph. The FAM-labeled peptide was dissolved in dimethyl sulfoxide (DMSO) at 1 mM and diluted into experimental buffer. Readings were carried out with an Envision Multilabel Reader (PerkinElmer). Experiments were carried out in PBS (2.7 mM KCl, 137 mM NaCl, 10 mM Na2HPO4 and 2 mM KH2PO4 (pH 7.4)) and 0.1% Tween-20 buffer. All titrations were carried out in triplicate. Curve-fitting was carried out using Prism 4.0 (GraphPad®). […] Negative control titrations of the ligands under investigation were also carried out with the fluorescently labeled peptide (in the absence of MDM2) to ensure no interactions were occurring between the ligands and the FAM-labeled peptide. […] Measurements were taken a minimum of three times (biological replicates) and values are reported as geometric means of the replicates.

Data set [1] deals with Jump-In T-REx CHO-K1 BLA cells. Put plainly: Tetracycline beta-lactamase reporter gene cellular assay (counterscreen). Format: cell-based. As to the method:
This assay was based on Jump-In™ T-REx™ CHO-K1 BLA cells containing a stably integrated β-lactamase under the control of an inducible cytomegalovirus (CMV) promoter. Cells were maintained in Dulbecco's Minimal Eagle Medium (DMEM) with 10% fetal bovine serum (FBS), Blasticidin, and Penicillin/Streptomycin and then transferred to 1.5 mL freezing vials and stored under liquid nitrogen in growth media containing 5% DMSO. […] Cells were seeded into a 384-well plate at a density of 4000 cells per well. […] The final working concentration of DMSO was 0.5%. β-lactamase activity was detected using the ToxBLAzer Dual Screen (Invitrogen), as per the manufacturer's instructions. Measurements were carried out using the Envision multiplate reader (PerkinElmer). Counterscreen activity was defined as the amount of β-lactamase activity induced by tetracycline. Measurements were taken a minimum of three times (biological replicates) and values are reported as geometric means of the replicates.

Data set [2] deals with p53 responsive β-lactamase reporter in HCT116 cells. The experiment in a line: p53 beta-lactamase reporter gene cellular functional assay. Format: cell-based. As to the method: HCT116 cells were stably transfected with a p53 responsive β-lactamase reporter and expanded in McCoy's 5A Medium with 10% fetal bovine serum (FBS), Blasticidin, and Penicillin/Streptomycin and then transferred to 1.5 mL freezing vials and stored under liquid nitrogen in growth media containing 5% DMSO. […] The cells were then seeded into a 384-well plate at a density of 8000 cells per well. […] The final working concentration of DMSO was 0.5%. β-lactamase activity was detected using the ToxBLAzer Dual Screen (Invitrogen), as per the manufacturer's instructions. Measurements were made using the Envision multiplate reader (PerkinElmer). […] Measurements were taken a minimum of three times (biological replicates) and values are reported as geometric means of the replicates.

The subject of another data set is HCT116. Format: cell-based. The text has this:
(§1) To further establish the impact of the above modification in making cleaner “drug” like compounds, we profiled a set of compounds of the invention in cellular proliferation assays (Table 3).

In another data set the test system is p53 null Ca Ski. Format: cell-based. The following applies: 72 h.
Description: as §1

Where [3] appears, read: read-out: Counter screen EC50 (0% FBS, 4 h), 0% FBS, 4 h.
Setting [4] is: read-out: Counter screen EC50 (10% FBS, 16 h), 10% FBS, 16 h.
[5] abbreviates: read-out: p53 activity EC50 (0% FBS, 4 h), 0% FBS, 4 h.
Setting [6] is: read-out: p53 activity EC50 (10% FBS, 16 h), 10% FBS, 16 h.

In turn, `CC(=O)N[C@@H](C(=O)N[C@H](C)C(=O)N[C@H](Cc1c[nH]c2cc(F)ccc12)C(=O)N[C@H](Cc1ccc(O)cc1)C(=O)N[C@H](C)C(=O)NC1(C)CCC/C=C\CCCC(C)(C(=O)N[C@H](CC(C)C)C(=O)N[C@H](CO)C(=O)N[C@H](C)C(=O)N[C@H](C)C(=O)N[C@H](C)C(N)=O)NC(=O)[C@@H](CCC(N)=O)NC(=O)[C@@H](CCC(=O)O)NC(=O)[C@@H](Cc2ccc(C(F)(F)F)cc2)NC1=O)[C@H](C)O.N` (stereo partly drawn) [Compound 3, Acetyl-^DPMI-δ-(6-10 olefinstaple) (D-K9D-Q, D-R12D-S, 3x(D-A)polypeptidetail)-NH2] (Ac-[dT][dA][dTrp(6-F)][dY][dA][ξαMeNle(6-ylidene)][dPhe(4-CF3)][dE][dQ][ξαMeNle(6-ylidene)][dL][dS][dA][dA][dA]-NH2; staple (Z) 6-10) yielded a solubility in “Solubility (PBS, pH 7)” of 140 µM. On MDM2 (1-125), this compound gave a dissociation constant (Kd) of 3.1 nM. For the same compound, the half-maximal effective concentration (EC50) was over 50000 nM in data set [1] (setting [3]), over 50000 nM in data set [1] (setting [4]), 1440 nM in data set [2] (setting [5]) and 4340 nM in data set [2] (setting [6]).
Consider `CC(=O)N[C@@H](C(=O)N[C@H](C)C(=O)N[C@H](Cc1c[nH]c2cc(F)ccc12)C(=O)N[C@H](Cc1ccc(O)cc1)C(=O)N[C@H](C)C(=O)NC1(C)CCC/C=C\CCCC(C)(C(=O)N[C@H](CC(C)C)C(=O)N[C@H](CO)C(=O)N[C@H](C)C(=O)N[C@H](C)C(=O)N[C@H](C)C(=O)N[C@H](C)C(=O)N[C@H](C)C(=O)N[C@H](C)C(N)=O)NC(=O)[C@@H](CCC(N)=O)NC(=O)[C@@H](CCC(=O)O)NC(=O)[C@@H](Cc2ccc(C(F)(F)F)cc2)NC1=O)[C@H](C)O` (stereo partly drawn) [Compound 4, Acetyl-^DPMI-δ-(6-10 olefinstaple) (D-K9D-Q, D-R12D-S, 6x(D-A)polypeptidetail)-NH2] (Ac-[dT][dA][dTrp(6-F)][dY][dA][ξαMeNle(6-ylidene)][dPhe(4-CF3)][dE][dQ][ξαMeNle(6-ylidene)][dL][dS][dA][dA][dA][dA][dA][dA]-NH2; staple (Z) 6-10), for which binding at MDM2 (1-125) was put at a Kd of 3.2 nM. In the data set on HCT116, the “improvement of cell efficacy in HCT116 proliferation versus compound 2” value was “greater than 6 fold”. The EC50 in the data set with HCT116 (72 h) is 1480 nM; in the data set with p53 null Ca Ski it was 31100 nM; in data set [1] (setting [3]), over 50000 nM; in data set [1] (setting [4]) it was over 50000 nM; in data set [2] (setting [5]), 610 nM; in data set [2] (setting [6]) it was 280 nM. In addition, the EC50 in data set [2] (read-out: p53 activity EC50 (10% FBS, 16 h), 10% FBS, 16 h, listed as compound 4) came to 300 nM. The “HCT116 proliferation % Max” value with HCT116 (72 hours, 10% serum) amounted to 84.5%^. In addition, in the data set on p53 null Ca Ski, the “p53 null Ca Ski proliferation % Max (inhibition at maximum concentration)” value came to 66%. Moreover, in data set [2] (10% serum), the “overall improvement of cellular activity compared to parent peptide” value was 100 fold.
As to `CC(=O)N[C@@H](C(=O)N[C@H](C)C(=O)N[C@H](Cc1c[nH]c2cc(F)ccc12)C(=O)N[C@H](Cc1ccc(O)cc1)C(=O)N[C@H](C)C(=O)NC1(C)CCC/C=C\CCCC(C)(C(=O)N[C@H](CC(C)C)C(=O)N[C@H](CO)C(=O)N[C@H](C)C(=O)N[C@H](C)C(=O)N[C@H](C)C(=O)N[C@H](C)C(=O)N[C@H](C)C(=O)N[C@H](C)C(=O)N[C@H](C)C(=O)N[C@H](C)C(=O)N[C@H](C)C(N)=O)NC(=O)[C@@H](CCC(N)=O)NC(=O)[C@@H](CCC(=O)O)NC(=O)[C@@H](Cc2ccc(C(F)(F)F)cc2)NC1=O)[C@H](C)O` (stereo partly drawn) [Compound 5, Acetyl- ^DPMI-δ-(6-10 olefinstaple) (D-K9D-Q, D-R12D-S, 9x(D-A)polypeptidetail)-NH2] (Ac-[dT][dA][dTrp(6-F)][dY][dA][ξαMeNle(6-ylidene)][dPhe(4-CF3)][dE][dQ][ξαMeNle(6-ylidene)][dL][dS][dA][dA][dA][dA][dA][dA][dA][dA][dA]-NH2; staple (Z) 6-10), in the data set “Solubility (PBS, pH 7)”, the concentration in solution (solubility) came to 16 µM (≈ 35.7 µg/mL). The Kd on MDM2 (1-125) amounted to 21.7 nM. The EC50 is over 50000 nM in data set [1] (setting [3]), over 50000 nM in data set [1] (setting [4]), at least 50000 nM in data set [2] (setting [5]) and over 50000 nM in data set [2] (setting [6]).
Consider `CC(=O)N[C@@H](C(=O)N[C@H](C)C(=O)N[C@H](Cc1c[nH]c2cc(F)ccc12)C(=O)N[C@H](Cc1ccc(O)cc1)C(=O)N[C@H](C)C(=O)NC1(C)CCC/C=C\CCCC(C)(C(=O)N[C@H](CC(C)C)C(=O)N[C@H](CO)C(=O)N[C@H](C)C(=O)N[C@H](C)C(=O)N[C@H](C)C(=O)N[C@H](CCC(=O)O)C(=O)N[C@H](C)C(=O)N[C@H](C)C(N)=O)NC(=O)[C@@H](CCC(N)=O)NC(=O)[C@@H](CCC(=O)O)NC(=O)[C@@H](Cc2ccc(C(F)(F)F)cc2)NC1=O)[C@H](C)O` (stereo partly drawn) [Compound 7, Acetyl-^DPMI-δ-(6-10 olefinstaple) (D-K9D-Q, D-R12D-S, 3x(D-Ala)-(D-Glu)-2x(D-Ala)polypeptidetail)-NH2] (Ac-[dT][dA][dTrp(6-F)][dY][dA][ξαMeNle(6-ylidene)][dPhe(4-CF3)][dE][dQ][ξαMeNle(6-ylidene)][dL][dS][dA][dA][dA][dE][dA][dA]-NH2; staple (Z) 6-10), for which, at MDM2 (1-125), binding was put at a Kd of 0.43 nM. Besides, the concentration giving a half-maximal response (EC50) in data set [1] (setting [3]) was over 50000 nM; in data set [1] (setting [4]), over 50000 nM; in data set [2] (setting [5]) it was 1410 nM; in data set [2] (setting [6]) it was 790 nM.
